{"source": "paper doi:10.1101/2021.04.08.439011v1", "about": "(biorxiv, 2021)", "details_in_all_cases": "0.1 µM; binder", "key": {"RIOK2": {"biological_target": "RIOK2 (Homo sapiens, UniProt Q9BVS4)", "sequence (Q9BVS4 whole entry)": "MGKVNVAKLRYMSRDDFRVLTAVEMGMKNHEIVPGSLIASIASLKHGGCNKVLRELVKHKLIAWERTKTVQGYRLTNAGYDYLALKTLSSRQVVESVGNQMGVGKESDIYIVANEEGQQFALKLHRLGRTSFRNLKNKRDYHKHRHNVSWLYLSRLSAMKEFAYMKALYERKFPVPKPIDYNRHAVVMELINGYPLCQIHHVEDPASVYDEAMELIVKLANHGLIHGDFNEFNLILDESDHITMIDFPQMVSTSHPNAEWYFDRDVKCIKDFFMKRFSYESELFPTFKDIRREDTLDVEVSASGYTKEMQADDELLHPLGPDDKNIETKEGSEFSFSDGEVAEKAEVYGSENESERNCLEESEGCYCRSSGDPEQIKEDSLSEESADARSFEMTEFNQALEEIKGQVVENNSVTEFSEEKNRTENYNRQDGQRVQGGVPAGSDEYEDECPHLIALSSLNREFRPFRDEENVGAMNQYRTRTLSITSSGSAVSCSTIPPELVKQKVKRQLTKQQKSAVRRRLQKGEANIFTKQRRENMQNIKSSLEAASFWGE"}, "CDK2": {"biological_target": "CDK2 (Homo sapiens, UniProt P24941)"}, "CAMK2B": {"biological_target": "CAMK2B (Homo sapiens, UniProt Q13554)"}, "GRK4": {"biological_target": "GRK4 (Homo sapiens, UniProt P32298)"}, "ERK2": {"biological_target": "ERK2 (Homo sapiens, UniProt P28482)"}, "IGF1R": {"biological_target": "IGF1R (Homo sapiens, UniProt P08069)"}, "KIT(V559D)": {"biological_target": "KIT(V559D) (Homo sapiens, UniProt P10721, V559D)"}, "CSNK1E": {"biological_target": "CSNK1E (Homo sapiens, UniProt P49674)", "sequence (P49674 whole entry)": "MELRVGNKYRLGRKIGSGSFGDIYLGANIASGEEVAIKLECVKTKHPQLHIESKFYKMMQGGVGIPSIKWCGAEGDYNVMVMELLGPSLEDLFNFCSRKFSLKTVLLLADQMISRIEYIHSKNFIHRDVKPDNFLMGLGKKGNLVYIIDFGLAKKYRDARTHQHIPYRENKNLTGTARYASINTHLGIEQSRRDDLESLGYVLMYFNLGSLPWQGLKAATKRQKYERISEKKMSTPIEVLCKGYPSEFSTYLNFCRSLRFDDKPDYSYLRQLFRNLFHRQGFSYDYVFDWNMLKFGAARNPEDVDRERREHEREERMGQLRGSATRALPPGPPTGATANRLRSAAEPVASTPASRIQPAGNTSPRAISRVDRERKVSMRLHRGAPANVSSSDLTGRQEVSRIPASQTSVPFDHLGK"}, "PDPK1": {"biological_target": "PDPK1 (Homo sapiens, UniProt O15530)", "sequence (O15530 whole entry)": "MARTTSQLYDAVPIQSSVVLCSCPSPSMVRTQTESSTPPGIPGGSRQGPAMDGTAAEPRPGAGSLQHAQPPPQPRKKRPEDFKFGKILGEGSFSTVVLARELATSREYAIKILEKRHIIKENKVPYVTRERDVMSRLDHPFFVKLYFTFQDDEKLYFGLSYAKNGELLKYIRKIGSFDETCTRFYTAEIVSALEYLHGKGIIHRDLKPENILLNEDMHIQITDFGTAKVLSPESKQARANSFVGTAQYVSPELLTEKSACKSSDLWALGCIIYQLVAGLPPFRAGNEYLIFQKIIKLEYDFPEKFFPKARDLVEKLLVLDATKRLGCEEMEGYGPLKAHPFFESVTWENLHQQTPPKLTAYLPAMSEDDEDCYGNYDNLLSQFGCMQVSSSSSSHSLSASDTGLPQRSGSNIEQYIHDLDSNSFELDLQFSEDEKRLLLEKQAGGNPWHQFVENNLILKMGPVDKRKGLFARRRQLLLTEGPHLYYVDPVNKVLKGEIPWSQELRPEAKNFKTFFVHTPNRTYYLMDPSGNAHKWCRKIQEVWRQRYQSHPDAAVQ"}, "ERK5": {"biological_target": "ERK5 (Homo sapiens, UniProt Q13164)"}, "EPHA8": {"biological_target": "EPHA8 (Homo sapiens, UniProt P29322)"}, "PIK3CA(C420R)": {"biological_target": "PIK3CA(C420R) (Homo sapiens, UniProt P42336, C420R)", "sequence (P42336 whole entry C420R)": "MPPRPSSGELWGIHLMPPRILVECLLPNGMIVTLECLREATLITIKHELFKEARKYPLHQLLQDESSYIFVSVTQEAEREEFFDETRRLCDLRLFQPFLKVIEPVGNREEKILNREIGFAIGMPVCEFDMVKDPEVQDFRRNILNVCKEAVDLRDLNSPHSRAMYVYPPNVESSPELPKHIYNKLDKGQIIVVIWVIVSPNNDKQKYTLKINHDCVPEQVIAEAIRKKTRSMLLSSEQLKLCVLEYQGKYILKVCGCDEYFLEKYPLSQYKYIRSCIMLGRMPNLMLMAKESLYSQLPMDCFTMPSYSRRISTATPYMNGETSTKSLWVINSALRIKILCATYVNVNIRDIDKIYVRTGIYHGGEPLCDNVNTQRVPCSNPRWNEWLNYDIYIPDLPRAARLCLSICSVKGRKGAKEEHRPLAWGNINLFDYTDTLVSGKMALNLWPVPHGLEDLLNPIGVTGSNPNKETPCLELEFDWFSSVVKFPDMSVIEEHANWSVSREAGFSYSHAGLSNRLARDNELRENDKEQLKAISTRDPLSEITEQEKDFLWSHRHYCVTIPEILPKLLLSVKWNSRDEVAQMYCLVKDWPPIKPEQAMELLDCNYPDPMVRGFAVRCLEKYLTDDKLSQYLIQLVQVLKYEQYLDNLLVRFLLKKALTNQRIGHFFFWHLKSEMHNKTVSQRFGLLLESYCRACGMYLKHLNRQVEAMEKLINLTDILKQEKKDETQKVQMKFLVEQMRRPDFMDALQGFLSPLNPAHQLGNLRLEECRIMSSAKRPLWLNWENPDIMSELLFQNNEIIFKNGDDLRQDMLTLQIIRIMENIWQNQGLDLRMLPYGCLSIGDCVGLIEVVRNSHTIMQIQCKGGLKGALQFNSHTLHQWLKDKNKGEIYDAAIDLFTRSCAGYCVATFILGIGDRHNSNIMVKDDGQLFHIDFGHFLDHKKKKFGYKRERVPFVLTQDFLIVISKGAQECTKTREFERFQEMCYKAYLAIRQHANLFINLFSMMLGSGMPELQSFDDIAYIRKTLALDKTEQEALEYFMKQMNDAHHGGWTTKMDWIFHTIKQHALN"}, "WEE1": {"biological_target": "WEE1 (Homo sapiens, UniProt P30291)"}, "PFTK1": {"biological_target": "PFTK1 (Homo sapiens, UniProt O94921)"}, "GAK": {"biological_target": "GAK (Homo sapiens, UniProt O14976)"}, "MAP4K4": {"biological_target": "MAP4K4 (Homo sapiens, UniProt O95819)"}, "RIPK4": {"biological_target": "RIPK4 (Homo sapiens, UniProt P57078)"}, "TNIK": {"biological_target": "TNIK (Homo sapiens, UniProt Q9UKE5)"}, "EPHA7": {"biological_target": "EPHA7 (Homo sapiens, UniProt Q15375)"}, "LYN": {"biological_target": "LYN (Homo sapiens, UniProt P07948)"}, "MYLK2": {"biological_target": "MYLK2 (Homo sapiens, UniProt Q9H1R3)"}, "DAPK1": {"biological_target": "DAPK1 (Homo sapiens, UniProt P53355)"}, "PAK3": {"biological_target": "PAK3 (Homo sapiens, UniProt O75914)"}, "MELK": {"biological_target": "MELK (Homo sapiens, UniProt Q14680)", "sequence (Q14680 whole entry)": "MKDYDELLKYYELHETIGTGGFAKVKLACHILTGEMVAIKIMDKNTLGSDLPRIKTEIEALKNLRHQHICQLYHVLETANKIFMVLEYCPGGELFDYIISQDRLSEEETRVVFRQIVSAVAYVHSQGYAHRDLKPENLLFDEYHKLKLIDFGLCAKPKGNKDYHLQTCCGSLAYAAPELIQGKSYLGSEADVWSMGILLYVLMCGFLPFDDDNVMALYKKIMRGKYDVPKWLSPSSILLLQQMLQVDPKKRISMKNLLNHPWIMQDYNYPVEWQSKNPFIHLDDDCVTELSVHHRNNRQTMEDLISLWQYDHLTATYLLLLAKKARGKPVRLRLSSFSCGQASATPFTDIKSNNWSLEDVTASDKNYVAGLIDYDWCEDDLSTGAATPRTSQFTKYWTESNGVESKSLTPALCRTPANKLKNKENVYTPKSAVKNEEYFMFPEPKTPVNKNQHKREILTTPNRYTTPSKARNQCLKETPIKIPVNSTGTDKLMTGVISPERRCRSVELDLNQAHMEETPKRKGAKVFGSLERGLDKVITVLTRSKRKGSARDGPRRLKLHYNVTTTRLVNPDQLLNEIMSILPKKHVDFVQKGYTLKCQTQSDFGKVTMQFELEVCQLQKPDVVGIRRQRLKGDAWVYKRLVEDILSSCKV"}, "YSK1": {"biological_target": "YSK1 (Homo sapiens, UniProt O00506)"}, "PKN1": {"biological_target": "PKN1 (Homo sapiens, UniProt Q16512)"}, "ERN1": {"biological_target": "ERN1 (Homo sapiens, UniProt O75460)"}, "SNRK": {"biological_target": "SNRK (Homo sapiens, UniProt Q9NRH2)", "sequence (Q9NRH2 whole entry)": "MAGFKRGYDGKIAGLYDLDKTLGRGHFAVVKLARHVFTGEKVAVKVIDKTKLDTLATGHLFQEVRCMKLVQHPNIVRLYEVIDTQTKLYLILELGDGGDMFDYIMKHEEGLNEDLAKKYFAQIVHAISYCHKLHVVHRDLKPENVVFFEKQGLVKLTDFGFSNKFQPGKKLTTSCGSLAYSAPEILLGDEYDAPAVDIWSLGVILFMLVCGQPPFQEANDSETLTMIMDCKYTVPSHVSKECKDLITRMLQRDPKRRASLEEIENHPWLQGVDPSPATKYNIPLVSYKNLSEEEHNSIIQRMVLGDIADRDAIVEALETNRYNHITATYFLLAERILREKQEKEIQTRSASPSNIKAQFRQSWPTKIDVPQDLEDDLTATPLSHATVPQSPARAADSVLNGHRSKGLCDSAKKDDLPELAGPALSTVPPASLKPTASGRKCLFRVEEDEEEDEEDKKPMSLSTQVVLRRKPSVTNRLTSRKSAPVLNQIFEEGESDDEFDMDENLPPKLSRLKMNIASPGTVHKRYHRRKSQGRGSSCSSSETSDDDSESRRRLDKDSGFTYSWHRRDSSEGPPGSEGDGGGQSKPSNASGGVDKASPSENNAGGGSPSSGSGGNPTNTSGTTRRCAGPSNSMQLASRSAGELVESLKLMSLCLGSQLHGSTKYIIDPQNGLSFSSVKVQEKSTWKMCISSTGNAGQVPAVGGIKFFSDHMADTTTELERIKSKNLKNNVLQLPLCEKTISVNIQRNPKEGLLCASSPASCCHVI"}, "FGFR3": {"biological_target": "FGFR3 (Homo sapiens, UniProt P22607)", "sequence (P22607 whole entry)": "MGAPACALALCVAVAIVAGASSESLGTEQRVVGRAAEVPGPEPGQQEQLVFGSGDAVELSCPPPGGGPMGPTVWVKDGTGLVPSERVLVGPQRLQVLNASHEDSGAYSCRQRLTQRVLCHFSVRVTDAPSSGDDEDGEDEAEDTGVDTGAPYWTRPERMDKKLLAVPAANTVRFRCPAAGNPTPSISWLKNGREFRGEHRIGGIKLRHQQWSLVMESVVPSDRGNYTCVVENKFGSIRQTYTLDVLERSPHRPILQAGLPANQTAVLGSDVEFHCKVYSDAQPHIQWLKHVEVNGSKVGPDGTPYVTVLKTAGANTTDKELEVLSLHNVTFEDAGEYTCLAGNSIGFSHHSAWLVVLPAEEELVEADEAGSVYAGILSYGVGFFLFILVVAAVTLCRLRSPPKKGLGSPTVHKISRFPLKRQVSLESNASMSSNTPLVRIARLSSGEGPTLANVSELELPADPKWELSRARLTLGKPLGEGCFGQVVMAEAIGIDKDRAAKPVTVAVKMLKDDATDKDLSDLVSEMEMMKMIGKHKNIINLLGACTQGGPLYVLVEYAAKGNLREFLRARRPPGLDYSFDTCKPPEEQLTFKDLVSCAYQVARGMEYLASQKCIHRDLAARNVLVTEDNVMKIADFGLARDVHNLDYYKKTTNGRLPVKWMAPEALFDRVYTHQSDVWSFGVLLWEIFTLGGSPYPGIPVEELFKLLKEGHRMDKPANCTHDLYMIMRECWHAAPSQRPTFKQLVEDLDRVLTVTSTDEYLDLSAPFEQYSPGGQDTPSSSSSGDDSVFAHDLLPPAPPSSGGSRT"}, "ADCK4": {"biological_target": "ADCK4 (Homo sapiens, UniProt Q96D53)"}, "FAK": {"biological_target": "FAK (Homo sapiens, UniProt Q05397)"}, "MTOR": {"biological_target": "MTOR (Homo sapiens, UniProt P42345)"}}}
{"smiles": "CNc1ncc2cc(-c3ccc(-c4cccc(C)n4)cc3Cl)c(=O)n(C[C@H]3OC[C@H](N)CO3)c2n1", "note": "[compound 6, G-5555]", "values": [{"measurement": "Percent Control", "setting": "RIOK2", "value": 100, "unit": "%"}, {"measurement": "Percent Control", "setting": "CDK2", "value": 96, "unit": "%"}, {"measurement": "Percent Control", "setting": "CAMK2B", "value": 100, "unit": "%"}, {"measurement": "Percent Control", "setting": "GRK4", "value": 100, "unit": "%"}, {"measurement": "Percent Control", "setting": "ERK2", "value": 100, "unit": "%"}, {"measurement": "Percent Control", "setting": "IGF1R", "value": 100, "unit": "%"}, {"measurement": "Percent Control", "setting": "KIT(V559D)", "value": 99, "unit": "%"}, {"measurement": "Percent Control", "setting": "CSNK1E", "value": 100, "unit": "%"}, {"measurement": "Percent Control", "setting": "PDPK1", "value": 99, "unit": "%"}, {"measurement": "Percent Control", "setting": "ERK5", "value": 98, "unit": "%"}, {"measurement": "Percent Control", "setting": "EPHA8", "value": 100, "unit": "%"}, {"measurement": "Percent Control", "setting": "PIK3CA(C420R)", "value": 80, "unit": "%"}, {"measurement": "Percent Control", "setting": "WEE1", "value": 98, "unit": "%"}, {"measurement": "Percent Control", "setting": "PFTK1", "value": 100, "unit": "%"}, {"measurement": "Percent Control", "setting": "GAK", "value": 51, "unit": "%"}, {"measurement": "Percent Control", "setting": "MAP4K4", "value": 100, "unit": "%"}, {"measurement": "Percent Control", "setting": "RIPK4", "value": 97, "unit": "%"}, {"measurement": "Percent Control", "setting": "TNIK", "value": 100, "unit": "%"}, {"measurement": "Percent Control", "setting": "EPHA7", "value": 100, "unit": "%"}, {"measurement": "Percent Control", "setting": "LYN", "value": 100, "unit": "%"}, {"measurement": "Percent Control", "setting": "MYLK2", "value": 93, "unit": "%"}, {"measurement": "Percent Control", "setting": "DAPK1", "value": 100, "unit": "%"}, {"measurement": "Percent Control", "setting": "PAK3", "value": 100, "unit": "%"}, {"measurement": "Percent Control", "setting": "MELK", "value": 51, "unit": "%"}, {"measurement": "Percent Control", "setting": "YSK1", "value": 40, "unit": "%"}, {"measurement": "Percent Control", "setting": "PKN1", "value": 100, "unit": "%"}, {"measurement": "Percent Control", "setting": "ERN1", "value": 92, "unit": "%"}, {"measurement": "Percent Control", "setting": "SNRK", "value": 84, "unit": "%"}, {"measurement": "Percent Control", "setting": "FGFR3", "value": 100, "unit": "%"}, {"measurement": "Percent Control", "setting": "ADCK4", "value": 99, "unit": "%"}, {"measurement": "Percent Control", "setting": "FAK", "value": 98, "unit": "%"}, {"measurement": "Percent Control", "setting": "MTOR", "value": 83, "unit": "%"}]}
